# Results published in PMC8794255, “Small molecule inhibitor of Igf2bp1 represses Kras and a pro-oncogenic phenotype in cancer cells” (RNA Biology, 2021).
# pIC50: −log10 of the molar value. Values joined by “and” are separate entries in the source; they are usually repeats but may differ in a detail not shown here. Identical values can stand only once.
# Key:
# [1] = biological target: T1, Igf2bp1 (Homo sapiens, UniProt Q9NZI8); experiment: Fluorescence polarization (FP) assay of Igf2bp1 binding to fluorescent Kras 6 RNA; conditions: FP dose response; read-out: IC50, inhibition of Igf2bp1 binding to Kras 6 RNA
# T1 construct: Recombinant full-length Igf2bp1 protein was labelled with RED-tris-NTA dye; made in house
# Experimental: For the small-molecule screen, compounds were obtained from the collection maintained at the Grand Israel National Center for Personalized Medicine, consisting of molecules purchased from commercial vendors. Labelled RNA (10 nM) was incubated with recombinant Igf2bp1 protein (400 nM) in FAM-RNA buffer (10 mM Tris pH 8.0, 75 mM KCl, 0.5 mM EDTA, 1 mM DTT, 0.0188 U/μL RNAsin, 0.0005 μg/mL heparin, 0.0001 μg/μL tRNA, 0.01% Triton X-100, 3 mM MgCl2, 0.05% IGEPAL) at room temperature for 15 min. 7 μL of this reaction mix was aliquoted with GNF WDII (USA) into wells of 1536 well plates, with a final concentration of 20 μM compound or DMSO. The plates were spun down and read in a BMG Pherastar FS (Germany) plate reader, in FP mode with a 485/520/520 polarization filter, calibrated to 35 mP for free fluorescein with similar total intensity as experimental samples. […]
# To determine the quality of our screening assay, the Z’ factor for each plate was calculated with a Z’ factor greater than 0.5 indicating a robust assay suitable for high throughput screening. Compounds that altered the overall fluorescence intensity compared to controls were considered auto florescence and excluded from further analysis. […] Any small molecule that causes a change of more than three standard deviations from the mean is determined appropriate for further investigation.
# [2] = system: ES2 cells; experiment: qPCR of Igf2bp1 target RNAs in ES2 cells; format: cell-based, human
# Experimental: (§1) Cells were grown for 12 hours in 12 well plates prior to incubation with the compound at different concentrations for an additional 12 or 24 hours. Total RNA was then extracted using EZ-RNA total RNA isolation kit (Biological Industries) and cDNA prepared from the RNA using the First Strand cDNA Synthesis kit (Quanta bio). Real time PCR was performed with Fast SYBR Green Master Mix (Thermo Fisher Scientific), and cDNA expression analysed with the Bio-Rad CFX Manager 3.1.
# [3] = system: H1299 cells; experiment: qPCR of Igf2bp1 target RNAs in H1299 cells; format: cell-based, human
# Experimental: as §1
# [4] = system: H1299 cells; experiment: Wound healing (cell migration) assay, H1299; format: cell-based, human
# Experimental: Cells were seeded in 96 IncuCyte® ImageLock plates (20X10^3 cells per well) for 24 hours, to a near confluency of 95%, before the addition of increasing concentrations of compound. After a further 24 hours, wells were scratched using the IncuCyte® 96-well WoundMaker Tool, and the cells cultured for an additional 48 hours using the IncuCyte® S3 Live-Cell Analysis System (Essen BioScience). The plate was imaged at increments of 120 minutes for a period of 48 hours, and then analysed for relative wound healing.
# [5] = system: H1299 cells; experiment: Cell proliferation assay (Incucyte), H1299; format: cell-based, human
# Experimental: ES2, H1299 and HEK293 cells were seeded in a 96 well plate (5X10^3 cells per well) for 24 hours before adding the compound at increasing concentrations. After an additional 24 hours, the plate was incubated in an IncuCyte® S3 Live-Cell Analysis System (Essen BioScience). The wells were filmed for 72 hours, and then analysed for proliferation rate Using IncuCyte® S3 Live-Cell Analysis System (Essen BioScience)
# T1 sequence (Q9NZI8 whole entry): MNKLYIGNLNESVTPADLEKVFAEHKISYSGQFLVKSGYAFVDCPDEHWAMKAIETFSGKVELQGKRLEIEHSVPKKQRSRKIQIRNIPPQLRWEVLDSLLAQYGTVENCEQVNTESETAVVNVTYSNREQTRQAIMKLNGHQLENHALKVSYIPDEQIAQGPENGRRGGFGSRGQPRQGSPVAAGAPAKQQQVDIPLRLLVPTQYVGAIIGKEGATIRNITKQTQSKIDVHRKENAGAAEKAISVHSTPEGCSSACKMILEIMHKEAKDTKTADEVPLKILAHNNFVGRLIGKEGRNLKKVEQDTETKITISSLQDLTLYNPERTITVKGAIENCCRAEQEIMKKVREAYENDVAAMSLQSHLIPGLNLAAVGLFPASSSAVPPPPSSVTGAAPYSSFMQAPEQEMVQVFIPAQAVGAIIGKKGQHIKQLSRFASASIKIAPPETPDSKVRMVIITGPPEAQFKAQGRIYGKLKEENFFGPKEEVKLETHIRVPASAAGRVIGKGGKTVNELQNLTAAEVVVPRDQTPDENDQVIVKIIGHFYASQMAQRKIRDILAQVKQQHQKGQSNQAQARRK
compound,measurement,setting,value
O=C(c1ccc(Cn2cnnn2)cc1)N1CCCC(Nc2ccc3c(c2)OCO3)C1 (stereo not drawn) [compound 7773],pIC50,[1],~4.52 and 4.52
same,Steady state level of CD44 RNA,"[2]; ES2, 20 μM 7773, 12 and 24 hours","strongly reduced after 12 hours, but appeared to recover after 24 hours"
same,"Steady state levels of CD44, Kras, cMyc and SRF RNA","[2]; ES2, 20 μM 7773, 12 hours",all of the assayed RNAs were reduced
same,"Steady state levels of CD44, Kras, cMyc and SRF RNA","[2]; ES2, 20 μM 7773, 24 hours",3 of the 4 RNAs showing similar or even enhanced reduction
same,Levels of control RNAs that are not targets of Igf2bp1,"[2]; ES2, 24 hours",not significantly affected
same,Steady state level of Kras mRNA,"[3]; H1299, 20 μM 7773, 12 hours",already reduced
same,"Steady state levels of CD44, Kras, cMyc and SRF RNA","[3]; H1299, 20 μM 7773, 24 hours",all of the RNAs significantly reduced
same,Levels of control RNAs that are not targets of Igf2bp1,"[3]; H1299, 24 hours",not significantly affected
same,Wound healing,"[4]; H1299, 20 μM",strongly inhibited
same,Wound healing,"[4]; H1299, lowest concentration 5 μM",discernible inhibition
same,Effect on cell proliferation or cytotoxicity,"[5]; H1299, 20 μM 7773",virtually no effect
same,Cell proliferation,"[5]; H1299, up to 20 μM",remarkably unaffected
